# Results: PMC4516916, “Development of Plate Reader and On-Line Microfluidic Screening to Identify Ligands of the 5-Hydroxytryptamine Binding Protein in Venoms” (Toxins, 2015)
# Counter-ions that a name gives are not always drawn.
# Experiments:
# [1] = test system: A1B2D1W 5HTBP; test: Fluorescence enhancement of anabaseine derivatives with 5HTBP (cuvette fluorometer); assay type: binding, Aplysia californica; conditions: fluorescence in presence of 5HTBP divided by fluorescence in absence of 5HTBP; A1B2D1W variant; excitation 488 nm
# Description: (§1) We first evaluated three potentially suitable tracer ligands. […] Fluorescence enhancement factors are defined as fluorescence in presence of 5HTBP divided by fluorescence in absence of 5HTBP. […] DAHBA was therefore selected as the most suitable tracer ligand.
# (§2) The fluorescence enhancement properties of three anabaseine derivatives (Supplementary Information Figure S3) bound to the orthosteric binding pocket of two different 5HTBP variants were measured using 1 cm wide glass cuvettes in a Perkin-Elmer LS50B fluorometer (Groningen, The Netherlands). The excitation spectra, λmax (nm), and ε (L·mol^−^1·cm^−^1) values of the anabaseine derivatives are described by Kool et al.. The emission spectra from 500–595 nm were recorded with 0.5 nm intervals with a fixed 488 nm excitation.
# [2] = test system: A1B2D1R 5HTBP; test: as above; assay type: binding, Aplysia californica; conditions: fluorescence in presence of 5HTBP divided by fluorescence in absence of 5HTBP; A1B2D1R variant; excitation 488 nm
# Description: as §1, §2
# [3] = Stability of tracer ligand in solution (MS analysis); assay type: physicochemical; conditions: deduced by MS analysis
# From the text: as §1
# [4] = target: T1, A1B2D1R 5HTBP mutant (Aplysia californica, UniProt Q8WSF8); test: Fluorescence enhancement microplate reader assay (DAHBA tracer); assay type: binding
# Description: Next, specific and non-specific binding was determined by measuring a tracer saturation curve with and without a displacing ligand. In this experiment, the binding protein concentration was 50 nM while 100 µM granisetron was used as displacing ligand for measurement of the non-specific binding curve. […] The non-specific binding, the total binding curve and the resulting specific binding curve is shown (Figure 2C).
# Fourteen 5-HT3R ligands, also binding to the 5HTBP [10], were selected for this experiment. The measured Ki values for both the fluorescence enhancement plate reader assay as well as those measured with the radioligand binding assay are listed (Supplementary Information Table S1).
# The buffer used for development of the 5HTBP fluorescence enhancement assay consisted of 1 mM KH2PO4, 3 mM Na2HPO4, […], 20 mM trizma base/HCl at pH 7.5 with addition of 400 μg/mL ELISA BR [21]. The fluorescence enhancement was measured with a Victor3 Microplate reader from Perkin-Elmer. The excitation and emission wavelengths were set to 485 and 520 nm, respectively. Black-bottomed 96-well microplates were purchased from Greiner Bio-One (Alphen aan den Rijn, The Netherlands). The final assay volume was 100 µL per well. The 5HTBP was first mixed with the ligands, and then with the tracer ligand. The assay mixture was incubated for 5 min before the measurement. The pharmacological validation was performed by measurement of IC50 curves of twelve 5-HT3R ligands and comparing the results obtained with the results obtained from a radioligand binding assay (see below). The z’ factors for the determination of assay quality were calculated according to Zhang.
# [5] = target: T1, A1B2D1R 5HTBP mutant; test: Radioligand binding assay with [3H]-granisetron (SPA)
# Description: The competitive radioligand-binding assay was performed as described by Kesters et al. 2013 [10]. His-tagged A1B2D1R 5HTBP was diluted in buffer (10 mM HEPES/0.05% Tween) to obtain 50 ng binding protein per well. […] The concentration of the radioligand [3H]-granisetron (Perkin-Elmer, Life Science, Groningen, The Netherlands, specific activity ~85 Ci/mmol) was 1.99 nM. After addition of PVT Copper His-Tag SPA beads (final concentration 2 mg/mL), the final well volume was 100 µL. The plates (white Optiplates, Perkin-Elmer Life Science, Groningen, The Netherlands) were incubated at room temperature under continuous shaking while protected from light for 1.5 h. The SPA beads were then allowed to settle for 3 h in the absence of light before counting in a Wallac 1450 MicroBeta (Perkin-Elmer Life Science, Groningen, The Netherlands). All radioligand binding data were fit by a non-linear, least squares curve analysis procedure using Graphpad Prism (version 5, GraphPad Software).
# [6] = read-out: Ki fluorescence enhancement (A1B2D1R 5HTBP mutant), plate reader assay
# [7] = read-out: Ki RLB (A1B2D1R 5HTBP mutant); [3H]-granisetron 1.99 nM
# [8] = plate reader assay, read-out: Ki fluorescence enhancement (A1B2D1R 5HTBP mutant)
# [9] = [3H]-granisetron 1.99 nM; read-out: Ki RLB (A1B2D1R 5HTBP mutant)
# T1 sequence (Q8WSF8 entry or part of it, change not shown): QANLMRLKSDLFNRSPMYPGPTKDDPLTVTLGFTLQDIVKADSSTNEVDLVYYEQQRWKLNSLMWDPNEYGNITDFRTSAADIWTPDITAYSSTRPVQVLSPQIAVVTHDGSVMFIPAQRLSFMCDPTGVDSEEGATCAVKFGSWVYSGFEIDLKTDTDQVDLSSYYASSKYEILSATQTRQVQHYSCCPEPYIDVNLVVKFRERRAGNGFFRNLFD
compound,measurement,setting,value
"CN1CCc2cc(/C=C3\CCCN=C3c3cccnc3)ccc21 [VUF11234, (E)-1-methyl-5-((2-(pyridin-3-yl)-5,6-dihydropyridin-3(4H)-ylidene)methyl)indoline]",fluorescence enhancement factor,[1],3.7
same,fluorescence enhancement factor,[2],6.5
same,degradation in solution,[3],notable degradation in solution
NCCc1c[nH]c2ccc(F)cc12 [5-fluorotryptamine HCL],Ki,[4]; [6],110 ± 14 µM
same,Ki,[5]; [7],101 ± 50.2 µM
COc1cc(N)c(Cl)cc1C(=O)NC1CN2CCC1CC2 (stereo not drawn) [zacopride],Ki,[4]; [6],4.05 ± 1.14 µM
same,Ki,[5]; [7],1.62 ± 0.57 µM
NC1CCN(c2cccc(Cl)n2)CC1 [SR57227],Ki,[4]; [8],85 ± 7.62 µM
same,Ki,[5]; [9],39.7 ± 15 µM
C=CCN1CCc2nc(N)sc2CC1 [B-HT920],Ki,[4]; [8],3.85 ± 0.76 µM
same,Ki,[5]; [9],0.93 ± 0.24 µM
RS 16566,Ki,[4]; [8],3 ± 0.02 µM
same,Ki,[5]; [9],0.38 ± 0.09 µM
CN1CCN(c2nc3ccccc3nc2Cl)CC1 [VUF10166],Ki,[4]; [8],11.5 ± 3.58 µM
same,Ki,[5]; [9],2.39 ± 0.58 µM
O=C1c2cccc3c2[C@H](CCC3)CN1[C@@H]1CN2CCC1CC2 [palonosetron],Ki,[4]; [6],2.2 ± 0.63 µM
same,Ki,[5]; [7],0.51 ± 0.11 µM
"CN1C2CCCC1CC(NC(=O)c1nn(C)c3ccccc13)C2 (stereo not drawn) [granisetron, Granisetron]",Ki,[4]; [6],0.24 ± 0.14 µM
same,Ki,[5]; [7],0.05 ± 0.01 µM
CN1[C@@H]2CC[C@H]1C[C@@H](OC(=O)c1c[nH]c3ccccc13)C2 [tropisetron],Ki,[4]; [6],0.04 µM
same,Ki,[5]; [7],0.01 µM
Cn1cc(C(=O)C(=O)NC2CN3CCC2CC3)c2ccccc21 (stereo not drawn) [RS56812],Ki,[4]; [8],3.57 ± 0.91 µM
same,Ki,[5]; [9],1.6 ± 0.34 µM
CN1CCN2c3ncccc3Cc3ccccc3C2C1 (stereo not drawn) [mirtazapine],Ki,[4]; [6],12.8 ± 3.99 µM
same,Ki,[5]; [7],9.29 ± 1.87 µM
"CN(C)c1ccc(/C=C2\CCCN=C2c2cccnc2)cc1 [VUF10907, (E)-3-(3-(4-Dimethylaminobenzylidene)-3,4,5,6-tetrahydropyridin-2-yl)pyridine]",fluorescence enhancement factor,[1],2.5
same,fluorescence enhancement factor,[2],3.8
c1ccc2nc(N3CCNCC3)ccc2c1 [quipazine],Ki,[4]; [6],73 ± 32.2 µM
same,Ki,[5]; [7],53.8 ± 13.7 µM
"CCN(CC)c1ccc(/C=C2\CCCN=C2c2cccnc2)c(O)c1 [DAHBA, (E)-3-(3-(4-diethylamino-2-hydroxybenzylidene)-3,4,5,6-tetrahydropyridin-2-yl)pyridine]",fluorescence enhancement factor,[2],4.7
